Assay results published in the supplement of paper PMC10331698.
± gives the standard deviation of the averaged measurements.

Tests used:
Test in all cases: level (log10 ratio to DMSO vehicle control); higher = higher biomarker level / cell amount than vehicle control
Conditions in all cases: in DMSO
[1] = compound: OCCC(F)(F)C(F)(F)C(F)(F)C(F)(F)C(F)(F)C(F)(F)F [6:2 Fluorotelomer alcohol]
Description: (§1)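 BioMAP Diversity Plus panel of 12 human primary cell co-culture systems (3C, 4H, LPS, SAg, BT, BF4T, BE3C, CASM3C, HDF3CGF, KF3CT, MyoF, Mphg). Compounds were added 1 h before stimulation and left for 24 h (MyoF 48 h; BT 72 h for soluble read-outs or 6 d for IgG). Biomarkers were read by ELISA, cytotoxicity by SRB, PBMC viability and proliferation by Alamar Blue. Each well value was divided by the mean of 8 DMSO control wells on the same plate and log10 transformed; duplicate blinded samples were tested at 4 concentrations.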

[2] = compound: FC(F)(F)C(F)(F)C(F)(F)C(F)(F)C(F)(F)CCI [1-Iodo-1H,1H,2H,2H-perfluoroheptane]
Description: as §1

[3] = compound: O=C(O)C(F)(F)C(F)(F)C(F)(F)C(F)(F)C(F)(F)C(F)(F)C(F)(F)C(F)F [9-H-Perfluorononanoic acid]
Description: as §1

[4] = compound: FC(F)(F)C(F)(F)C(F)(F)C(F)(F)C(F)(F)C(F)(F)C(F)(F)C(F)(F)CCS [2-(Perfluorooctyl)ethanthiol]
Description: as §1

[5] = compound: CCN(CCO)S(=O)(=O)C(F)(F)C(F)(F)C(F)(F)C(F)(F)C(F)(F)C(F)(F)C(F)(F)C(F)(F)F [N-Ethyl-N-(2-hydroxyethyl)perfluorooctanesulfonamide]
Description: as §1

[6] = compound: NCC(F)(F)C(F)(F)C(F)(F)C(F)(F)C(F)(F)C(F)(F)C(F)(F)F [1H,1H-Perfluorooctylamine]
Description: as §1

[7] = compound: COC(=O)CCC(F)(F)C(F)(F)C(F)(F)C(F)(F)F [Methyl 2H,2H,3H,3H-perfluoroheptanoate]
Description: as §1

Row | Test System | level (log10) ([1]; 6700 nM) | level (log10) ([1]; 20000 nM) | level (log10) ([2]; 6700 nM) | level (log10) ([2]; 20000 nM) | level (log10) ([2]; 60000 nM) | level (log10) ([3]; 6700 nM) | level (log10) ([3]; 20000 nM) | level (log10) ([3]; 60000 nM) | level (log10) ([4]; 6700 nM) | level (log10) ([4]; 20000 nM) | level (log10) ([5]; 6700 nM) | level (log10) ([5]; 20000 nM) | level (log10) ([6]; 6700 nM) | level (log10) ([6]; 20000 nM) | level (log10) ([6]; 60000 nM) | level (log10) ([7]; 6700 nM) | level (log10) ([7]; 20000 nM) | level (log10) ([7]; 60000 nM)
1 | CASM3C:IL-6 | 0.0015 ± 0.018 | -0.004 ± 0.0099 | -0.0145 ± 0.022 | -0.044 ± 0.0057 | -0.017 ± 0.018 | -0.012 ± 0.0071 | -0.036 ± 0.0042 | -0.0045 ± 0.05 | 0.0235 ± 0.09 | 0.0465 ± 0.035 | -0.0025 ± 0.0035 | -0.0255 ± 0.044 | -0.0245 ± 0.037 | 0.0005 ± 0.057 | 0.035 ± 0.081 | -0.019 ± 0.021 | -0.025 ± 0.0028 | 0.0005 ± 0.028
2 | CASM3C:HLA-DR | 0 ± 0.025 | -0.025 ± 0.023 | -0.006 ± 0.0099 | -0.0055 ± 0.0064 | -0.009 ± 0.021 | -0.01 ± 0.0071 | -0.0145 ± 0.0092 | 0.0025 ± 0.012 | -0.0165 ± 0.012 | 0.003 ± 0.0028 | -0.002 ± 0.024 | -0.111 ± 0.013 | -0.01 ± 0.0028 | -0.0085 ± 0.032 | 0.029 ± 0.0042 | -0.0185 ± 0.005 | -0.014 ± 0.018 | -0.011 ± 0.028
